What was measured:
[1] = tested on: B16F1 melanoma expressing OVA; assay: Antitumor activity of expanded OT-I T cells in mice bearing B16F1 melanoma expressing OVA; format: in vivo; details: 7-day established tumors; vs OT-I expanded with IL-2 or IL-7/IL15 without PFM037
Experimental: To evaluate whether PFM037 induces functional and phenotypic changes of in vitro activated OT-T cells, OT-I T cells were activated in the presence of anti-CD3/CD28 coated beads and IL-2. Forty-eight hours later the cells were differentiated and expanded by IL-7/IL15 (5ng/ml both cytokines) with or without PFM037. Ten, 12 and 15 days later, FACS analysis was performed to evaluate their differentiation status. […] T cells expanded by IL7 and II,15 in the presence of PFM037 also expressed at higher levels the sternness markers Sca1, Tcf1 and CXCR3. […] First, OT-I T cells expanded with IL-2 (effectors) or IL-7/ILIS with or without PFM037 (memory T cells) were injected in mice bearing 7-day established B16F1 melanoma expressing OVA. […] Then, mice bearing MC-38-OVA-liver metastases were treated with vehicle, or OT-I T cells expanded with IL-2 (effectors), or IL-7/IL15 with or without PFM037. Tumor-bearing mice injected with vehicle were all dead 40 days after tumor injection. Twenty percent of tumor-bearing mice treated with OT-I T cells expanded with IL-2 were alive at 60 days, whereas 50% and 80% of tumor-bearing mice treated with IL-7/IL15 with or without PFM037, respectively, were alive at 60 days (Fig. 20). […]

[2] = tested on: MC38-GFP colon cancer cells; assay: Liver metastasis model, intramesenteric injection of MC38-GFP cells; details: 400 µg, 3 days/week for 2 weeks; 21 days after tumor challenge; vs vehicle
Experimental: Macroscopic liver tumor quantification and Immunohistochemistry. At time of autopsy, visible macroscopic tumors were counted, and each liver macroscopically photographed. Livers were then perfused with PBS, harvested and different pieces were sampled, fixed in zinc-formalin and embedded in paraffin for hematoxylin/eosin or immunohistochemical analysis as described^62. Immunohistochemical staining was performed using a Bond RX Automated Immunohistochemistry system (Leica Microsystems GmbH, Wetzlar, Germany) on 3-µm-thick sections. First, tissues were deparaffinized and pre-treated with the Epitope Retrieval Solution [ER1 Citrate Buffer for GFP (dilution 1:500, GFP Polyclonal Antibody, Thermo Fisher Scientific, Cat# A11122, RRID:AB_221569). After washing steps, peroxidase blocking was carried out for 10 min using the Bond Polymer Refine Detection Kit DS9800 (Leica Microsystems GmbH). Then, tissues were washed and incubated for 1h RT with the primary antibody diluted in IHC Antibody Diluent (Novocastra, Leica RE7133). Subsequently, tissues were incubated with polymer-HRP (Biocare Medical, RT517H), developed with DAB-Chromogen for 10 minutes and counterstained with Hematoxilin for 5 minutes. For image acquisition and analysis eSlide Manager (Aperio Leica Biosystems) was used. All images were acquired using the Aperio AT2 system (Leica Biosystems). […]

CC(C)CC[C@H](O)[C@@H](C)[C@H]1CC[C@H]2[C@@H]3CC=C4C[C@@H](OS(=O)(=O)[O-])CC[C@]4(C)[C@H]3CC[C@]12C.[Na+] [PFM037, 22(S)-Hydroxycholesterol-3-sulfate sodium salt]
tumor growth control by OT-I T cells expanded with PFM037 [1]: significantly better | tumor area [2]: reduced | tumor nodules (macroscopic liver tumor lesions) [2]: much less
